Test results published in patent US10167257B2, “Indole derivatives for use in medicine” (IOmet Pharma Ltd., priority 2014, dated 2019).

Tests used:
TDO (A172 cells) = biological target: T1, TDO (A172 cells) (Homo sapiens, UniProt P48775); assay: TDO cell-based assay (A172), kynurenine production; conditions: A172 human glioblastoma cells, 500 μM L-Trp, 48 h, kynurenine by absorbance at 490 nm
T1 construct: This assay utilised cancer cells which expressed either TDO or IDO; host or cells: A172 human glioblastoma cells
T1 sequence (P48775 whole entry): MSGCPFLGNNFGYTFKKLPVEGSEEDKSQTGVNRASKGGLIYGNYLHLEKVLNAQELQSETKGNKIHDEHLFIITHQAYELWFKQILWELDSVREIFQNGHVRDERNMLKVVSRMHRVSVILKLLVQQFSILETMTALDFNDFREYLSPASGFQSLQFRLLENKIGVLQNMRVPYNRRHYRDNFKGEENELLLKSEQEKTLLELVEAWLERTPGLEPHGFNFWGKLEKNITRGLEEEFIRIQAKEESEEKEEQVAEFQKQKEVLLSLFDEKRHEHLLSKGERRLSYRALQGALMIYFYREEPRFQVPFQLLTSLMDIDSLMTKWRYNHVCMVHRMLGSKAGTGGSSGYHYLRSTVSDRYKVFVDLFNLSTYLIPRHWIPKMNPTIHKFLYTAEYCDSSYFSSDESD
Procedure, shortened: (§1)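 Kynurenine output was read at 490 nm after 5 min with 1% Ehrlich's reagent, using supernatants from 48 h, 37 °C cultures containing 500 μM L-Trp and test compound. TDO activity came from A172 cells. IDO activity came from SKOV-3 cells, whose expression was induced by adding 500 ng/ml IFNγ.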

IDO (SKOV-3 cells) = biological target: T2, IDO (SKOV-3 cells) (Homo sapiens, UniProt P14902); assay: IDO cell-based assay (SKOV-3, IFNγ-induced), kynurenine production; conditions: SKOV-3 ovary adenocarcinoma cells, IFNγ 500 ng/ml, 500 μM L-Trp, 48 h, kynurenine by absorbance at 490 nm
T2 construct: This assay utilised cancer cells which expressed either TDO or IDO; host or cells: SKOV-3 ovary adenocarcinoma cells, IFNγ-induced
T2 sequence (P14902 whole entry): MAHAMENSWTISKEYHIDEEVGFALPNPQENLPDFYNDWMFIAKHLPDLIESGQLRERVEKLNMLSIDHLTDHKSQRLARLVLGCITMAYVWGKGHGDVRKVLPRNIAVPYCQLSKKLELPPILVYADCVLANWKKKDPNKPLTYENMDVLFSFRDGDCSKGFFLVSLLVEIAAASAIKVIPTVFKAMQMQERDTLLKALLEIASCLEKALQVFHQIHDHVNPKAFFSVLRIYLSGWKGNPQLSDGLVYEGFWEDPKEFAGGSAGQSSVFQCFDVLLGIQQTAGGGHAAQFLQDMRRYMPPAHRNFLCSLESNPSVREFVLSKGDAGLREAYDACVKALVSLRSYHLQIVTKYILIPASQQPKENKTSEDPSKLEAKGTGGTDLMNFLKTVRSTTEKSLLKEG
Procedure, shortened: as §1

| SMILES | TDO cellular assay (A172) pIC50 (TDO (A172 cells)) | IDO cellular assay (SKOV3) pIC50 (IDO (SKOV-3 cells)) |
| --- | --- | --- |
| Cc1nc(C(C)NC(=O)c2cc3cc(Cl)ccc3[nH]2)no1 (centres unmarked) [Compound 212] | + (+ = pIC50 4.50-<5.00) | ++ (++ = pIC50 5.00-<5.50) |
| Cc1nc(C(C)NC(=O)c2cc3cc(C#N)ccc3[nH]2)no1 (centres unmarked) [Compound 216] | − (− = pIC50 <4.50) | + (+ = pIC50 4.50-<5.00) |
| O=C(NC1(c2ccccc2)COC1)c1cc2ccc(C(F)F)cc2[nH]1 [Compound 218] | − (− = pIC50 <4.50) | + (+ = pIC50 4.50-<5.00) |
| O=C(NC1(c2ccccc2)COC1)c1cc2c(F)c(Cl)ccc2[nH]1 [Compound 220] | − (− = pIC50 <4.50) | +++ (+++ = pIC50 ≥5.50) |
| Cc1noc(C(C)NC(=O)c2cc3cc(C#N)ccc3[nH]2)n1 (centres unmarked) [Compound 221] | − (− = pIC50 <4.50) | + (+ = pIC50 4.50-<5.00) |
| Cc1nc(C(C)NC(=O)c2cc3cc(C#N)ccc3[nH]2)co1 (centres unmarked) [Compound 222] | − (− = pIC50 <4.50) | ++ (++ = pIC50 5.00-<5.50) |
| O=C(NC1(c2ccccc2)COC1)c1cc2cc(Cl)cc(F)c2[nH]1 [Compound 227] | ++ (++ = pIC50 5.00-<5.50) | +++ (+++ = pIC50 ≥5.50) |
| Cc1ncc(C(C)NC(=O)c2cc3cc(C#N)ccc3[nH]2)o1 (centres unmarked) [Compound 229] | +++ (+++ = pIC50 ≥5.50) | +++ (+++ = pIC50 ≥5.50) |
| Cc1cc(C(C)NC(=O)c2cc3cc(Cl)ccc3[nH]2)no1 (centres unmarked) [Compound 234] | ++ (++ = pIC50 5.00-<5.50) | +++ (+++ = pIC50 ≥5.50) |
| Cc1cc(C(C)NC(=O)c2cc3cc(C#N)ccc3[nH]2)no1 (centres unmarked) [Compound 235] | − (− = pIC50 <4.50) | +++ (+++ = pIC50 ≥5.50) |
| O=C(NC(c1ccccc1)c1ccccc1)c1cc2cc(Cl)ccc2[nH]1 [Compound 237] | − (− = pIC50 <4.50) | ++ (++ = pIC50 5.00-<5.50) |
| CC(NC(=O)c1cc2cc(OCc3ccccc3)ccc2[nH]1)c1cnn(C)c1 (centres unmarked) [Compound 239] | − (− = pIC50 <4.50) | + (+ = pIC50 4.50-<5.00) |
| CCc1ccc2[nH]c(C(=O)N[C@H](C)c3ccccc3)cc2c1 [Compound 241] | − (− = pIC50 <4.50) | +++ (+++ = pIC50 ≥5.50) |
| N#Cc1ccc2[nH]c(C(=O)NC3(c4ccc(F)cc4)COC3)cc2c1 [Compound 245] | − (− = pIC50 <4.50) | +++ (+++ = pIC50 ≥5.50) |
| O=C(NC1(c2ccccc2)CC1)C1Cc2cc(Cl)ccc2N1 (centres unmarked) [Compound 246] | + (+ = pIC50 4.50-<5.00) | +++ (+++ = pIC50 ≥5.50) |
| C[C@@H](NC(=O)c1cc2cc(OC(F)(F)F)ccc2[nH]1)c1ccccc1 [Compound 247] | − (− = pIC50 <4.50) | +++ (+++ = pIC50 ≥5.50) |
| O=C(NC1(c2ccccc2)CC1)c1cc2cc(OC(F)(F)F)ccc2[nH]1 [Compound 248] | − (− = pIC50 <4.50) | +++ (+++ = pIC50 ≥5.50) |
| CC(NC(=O)c1cc2cc(OC(F)(F)F)ccc2[nH]1)c1cnn(C)c1 (centres unmarked) [Compound 249] | + (+ = pIC50 4.50-<5.00) | +++ (+++ = pIC50 ≥5.50) |
| C[C@@H](NC(=O)c1cc2cc(Br)ccc2[nH]1)c1ccccc1 [Compound 252] | − (− = pIC50 <4.50) | +++ (+++ = pIC50 ≥5.50) |
| CN1CCC(C(NC(=O)c2cc3cc(Cl)ccc3[nH]2)c2ccccc2)CC1 (centres unmarked) [Compound 256] | + (+ = pIC50 4.50-<5.00) | + (+ = pIC50 4.50-<5.00) |
| CC(C)Oc1ccc2[nH]c(C(=O)N[C@H](C)c3ccccc3)cc2c1 [Compound 260] | + (+ = pIC50 4.50-<5.00) | +++ (+++ = pIC50 ≥5.50) |

Second part, the compound after the results:

| TDO cellular assay (A172) pIC50 (TDO (A172 cells)) | IDO cellular assay (SKOV3) pIC50 (IDO (SKOV-3 cells)) | SMILES |
| --- | --- | --- |
| − (− = pIC50 <4.50) | + (+ = pIC50 4.50-<5.00) | Cn1cc(C2(NC(=O)c3cc4cc(O)ccc4[nH]3)CC2)cn1 [Compound 211] |
| − (− = pIC50 <4.50) | +++ (+++ = pIC50 ≥5.50) | Cn1cc(C2(NC(=O)c3cc4cc(Cl)ccc4[nH]3)COC2)cn1 [Compound 213] |
| − (− = pIC50 <4.50) | +++ (+++ = pIC50 ≥5.50) | CCn1cc(C2(NC(=O)c3cc4cc(Cl)ccc4[nH]3)CC2)cn1 [Compound 214] |
| − (− = pIC50 <4.50) | +++ (+++ = pIC50 ≥5.50) | Cn1cc(C2(NC(=O)c3cc4cc(Cl)ccc4[nH]3)CCC2)cn1 [Compound 215] |
| − (− = pIC50 <4.50) | +++ (+++ = pIC50 ≥5.50) | Cc1cc(C2(NC(=O)c3cc4cc(Cl)ccc4[nH]3)CC2)no1 [Compound 217] |
| − (− = pIC50 <4.50) | +++ (+++ = pIC50 ≥5.50) | Cc1cc(C2(NC(=O)c3cc4cc(C#N)ccc4[nH]3)CC2)no1 [Compound 219] |
| − (− = pIC50 <4.50) | +++ (+++ = pIC50 ≥5.50) | O=C(NC1(c2ccncc2)CC1)c1cc2cc(Cl)ccc2[nH]1 [Compound 223] |
| ++ (++ = pIC50 5.00-<5.50) | ++ (++ = pIC50 5.00-<5.50) | Cn1ccc(C2(NC(=O)c3cc4cc(Cl)ccc4[nH]3)CC2)n1 [Compound 224] |
| − (− = pIC50 <4.50) | +++ (+++ = pIC50 ≥5.50) | Cc1nc(C2(NC(=O)c3cc4cc(Cl)ccc4[nH]3)CC2)co1 [Compound 225] |
| − (− = pIC50 <4.50) | +++ (+++ = pIC50 ≥5.50) | Cc1nc(C2(NC(=O)c3cc4cc(C#N)ccc4[nH]3)CC2)co1 [Compound 226] |
| ++ (++ = pIC50 5.00-<5.50) | ++ (++ = pIC50 5.00-<5.50) | Cc1ncc(C(C)NC(=O)c2cc3cc(Cl)ccc3[nH]2)o1 (centres unmarked) [Compound 228] |
| − (− = pIC50 <4.50) | +++ (+++ = pIC50 ≥5.50) | O=C(NC1(c2ccccc2)CCCC1)c1cc2cc(Cl)ccc2[nH]1 [Compound 230] |
| − (− = pIC50 <4.50) | +++ (+++ = pIC50 ≥5.50) | N#Cc1ccc2[nH]c(C(=O)NC3(c4ccccc4)CCCC3)cc2c1 [Compound 231] |
| − (− = pIC50 <4.50) | + (+ = pIC50 4.50-<5.00) | Cc1nnc(C2(NC(=O)c3cc4cc(Cl)ccc4[nH]3)CC2)[nH]1 [Compound 233] |
| − (− = pIC50 <4.50) | +++ (+++ = pIC50 ≥5.50) | Cn1cc(C2(NC(=O)c3cc4cc(C#N)ccc4[nH]3)COC2)cn1 [Compound 236] |
| − (− = pIC50 <4.50) | +++ (+++ = pIC50 ≥5.50) | Cn1cc(C2(NC(=O)c3cc4cc(Br)ccc4[nH]3)COC2)cn1 [Compound 238] |
| − (− = pIC50 <4.50) | +++ (+++ = pIC50 ≥5.50) | O=C(NC1(c2ccccc2)CCCCC1)c1cc2cc(Cl)ccc2[nH]1 [Compound 240] |
| − (− = pIC50 <4.50) | +++ (+++ = pIC50 ≥5.50) | CCc1ccc2[nH]c(C(=O)NC3(c4ccccc4)CC3)cc2c1 [Compound 242] |
| − (− = pIC50 <4.50) | +++ (+++ = pIC50 ≥5.50) | CCc1ccc2[nH]c(C(=O)NC(C)c3cnn(C)c3)cc2c1 (centres unmarked) [Compound 243] |
| − (− = pIC50 <4.50) | +++ (+++ = pIC50 ≥5.50) | O=C(NC1(c2ccc(F)cc2)COC1)c1cc2cc(Cl)ccc2[nH]1 [Compound 244] |
| − (− = pIC50 <4.50) | +++ (+++ = pIC50 ≥5.50) | Cn1cc(C2(NC(=O)c3cc4cc(Cl)ccc4[nH]3)CCCC2)cn1 [Compound 250] |
| − (− = pIC50 <4.50) | +++ (+++ = pIC50 ≥5.50) | Cn1cc(C2(NC(=O)c3cc4cc(Cl)ccc4[nH]3)CCCCC2)cn1 [Compound 251] |
| − (− = pIC50 <4.50) | +++ (+++ = pIC50 ≥5.50) | O=C(NC1(c2ccccc2)CC1)c1cc2cc(Br)ccc2[nH]1 [Compound 253] |
| − (− = pIC50 <4.50) | +++ (+++ = pIC50 ≥5.50) | CC(NC(=O)c1cc2cc(Br)ccc2[nH]1)c1cnn(C)c1 (centres unmarked) [Compound 254] |
| − (− = pIC50 <4.50) | +++ (+++ = pIC50 ≥5.50) | CCC(NC(=O)c1cc2cc(Cl)ccc2[nH]1)c1cnn(C)c1 (centres unmarked) [Compound 258] |
| − (− = pIC50 <4.50) | +++ (+++ = pIC50 ≥5.50) | CC(C)C(NC(=O)c1cc2cc(Cl)ccc2[nH]1)c1cnn(C)c1 (centres unmarked) [Compound 259] |
| − (− = pIC50 <4.50) | +++ (+++ = pIC50 ≥5.50) | CC(C)Oc1ccc2[nH]c(C(=O)NC3(c4ccccc4)CC3)cc2c1 [Compound 261] |
| − (− = pIC50 <4.50) | + (+ = pIC50 4.50-<5.00) | CC(C)Oc1ccc2[nH]c(C(=O)NC(C)c3cnn(C)c3)cc2c1 (centres unmarked) [Compound 262] |
